Values of other authors, collected in patent US12102751B2, “Positive pressure inhaler for delivery of inhalable medication and methods for use” (priority 2019, dated 2024).

How the values were obtained:
[1] = after vaping

C=C(C)[C@@H]1CCC(C)=C[C@H]1c1c(O)cc(CCCCC)cc1O [CBD, Cannabidiol]
time after which plasma concentration falls [1]: 22 min | time at which plasma concentration reaches maximum strength [1]: 6 min

CCCCCc1cc(O)c2c(c1)OC(C)(C)[C@@H]1CCC(C)=C[C@@H]21 [THC, tetrahydrocannabinol]
time after which plasma concentration falls [1]: 22 min | time at which plasma concentration reaches maximum strength [1]: 6 min | solubility in most organic solvents (most organic solvents, specifically lipids and alcohols): good | solubility in water (water): very low
